Values quoted from earlier work as cited in patent publication US20070042062A1, “Novel anti-diabetic herbal formulation” (COUNCIL OF SCIENTIFIC AND INDUSTRIAL RESEARCH., priority 2004, published 2007).

Tests used:
[1] = system: carrageenin-induced acute oedema; conditions: mice
[2] = system: male volunteers; design: dose or concentration left out as unconfirmed; conditions: for 4 weeks
[3] = system: patients suffering from chronic antieri or ureitis (CAU); conditions: 375 mg three times a day for 12 weeks, oral; curcumin alone
[4] = system: monkey; conditions: in vivo

Compound: COc1cc(/C=C/C(=O)CC(=O)/C=C/c2ccc(O)c(OC)c2)ccc1O [Curcumin, curcumin]
- oral ED50 against carrageenin-induced acute oedema [1]: 100.2 mg/kg
- side effect in phase-I trials [2]: did not produce any side effect
- clinical outcome in CAU patients [3]: all the patients who received curcumin alone improved
- toxicity on single or repeated oral administration [4]: did not produce any toxicity
